According to the supplement of paper PMC10307832:

Key:
Test in all cases: relative viability (nuclei count vs DMSO), 5 days (fraction); higher = more cells survive
[1] = compound: CC(C)CCN1c2nc(Nc3cc(F)c(O)c(F)c3)ncc2N(C)C(=O)C1C [BI-D1870] + COc1cccc2cc(-c3nc([C@H]4CC[C@H](C(=O)O)CC4)n4ncnc(N)c34)[nH]c12 [OSI-027] (partner 0.5 µM)
How it was run: (§1)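 Dosing by pin tool came one day after lung cancer cell lines were seeded in 1536-well plates, using either one drug or a fixed anchor-drug dose plus five library-drug doses (not always all listed) in √10 steps. After 5 days, nuclei were counted on 4× images. Relative viability is treated-well nuclei count divided by vehicle-well nuclei count, and values are medians of duplicate plates.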

[2] = compound: CC(C)CCN1c2nc(Nc3cc(F)c(O)c(F)c3)ncc2N(C)C(=O)C1C [BI-D1870] + Cc1cc(Nc2cc(N3CCN(C)CC3)nc(Sc3ccc(NC(=O)C4CC4)cc3)n2)n[nH]1 [Tozasertib] (partner 0.1 µM)
How it was run: as §1

[3] = compound: CC(C)CCN1c2nc(Nc3cc(F)c(O)c(F)c3)ncc2N(C)C(=O)C1C [BI-D1870] + C[C@]1(O)C[C@@H](c2nc(-c3ccc4ccc(-c5ccccc5)nc4c3)c3c(N)nccn32)C1 [Linsitinib] (partner 1 µM)
How it was run: as §1

[4] = compound: CC(C)CCN1c2nc(Nc3cc(F)c(O)c(F)c3)ncc2N(C)C(=O)C1C [BI-D1870] + CS(=O)(=O)N1CCN(Cc2cc3nc(-c4cccc5[nH]ncc45)nc(N4CCOCC4)c3s2)CC1 [Pictilisib] (partner 1 µM)
How it was run: as §1

NCI-H2347
relative viability ([1]; first compound 0.04 µM): 0.422 | relative viability ([1]; first compound 0.1265 µM): 0.458 | relative viability ([1]; first compound 0.4 µM): 0.374 | relative viability ([1]; first compound 1.265 µM): 0.476 | relative viability ([1]; first compound 4 µM): 0.478 | relative viability ([2]; first compound 0.04 µM): 0.635 | relative viability ([2]; first compound 0.1265 µM): 0.501 | relative viability ([2]; first compound 0.4 µM): 0.595 | relative viability ([2]; first compound 1.265 µM): 0.516 | relative viability ([2]; first compound 4 µM): 0.335 | relative viability ([3]; first compound 0.04 µM): 1.07 | relative viability ([3]; first compound 0.1265 µM): 0.965 | relative viability ([3]; first compound 0.4 µM): 0.962 | relative viability ([3]; first compound 1.265 µM): 1.03 | relative viability ([3]; first compound 4 µM): 0.899 | relative viability ([4]; first compound 0.04 µM): 0.797 | relative viability ([4]; first compound 0.1265 µM): 0.466 | relative viability ([4]; first compound 0.4 µM): 0.662 | relative viability ([4]; first compound 1.265 µM): 0.649 | relative viability ([4]; first compound 4 µM): 0.44

NCI-H2405
relative viability ([1]; first compound 0.04 µM): 0.675 | relative viability ([1]; first compound 0.1265 µM): 0.634 | relative viability ([1]; first compound 0.4 µM): 0.643 | relative viability ([1]; first compound 1.265 µM): 0.688 | relative viability ([1]; first compound 4 µM): 0.642 | relative viability ([2]; first compound 0.04 µM): 0.837 | relative viability ([2]; first compound 0.1265 µM): 0.697 | relative viability ([2]; first compound 0.4 µM): 0.728 | relative viability ([2]; first compound 1.265 µM): 0.846 | relative viability ([2]; first compound 4 µM): 0.421 | relative viability ([3]; first compound 0.04 µM): 1.07 | relative viability ([3]; first compound 0.1265 µM): 0.839 | relative viability ([3]; first compound 0.4 µM): 0.901 | relative viability ([3]; first compound 1.265 µM): 1.06 | relative viability ([3]; first compound 4 µM): 0.909 | relative viability ([4]; first compound 0.04 µM): 0.549 | relative viability ([4]; first compound 0.1265 µM): 0.479 | relative viability ([4]; first compound 0.4 µM): 0.442 | relative viability ([4]; first compound 1.265 µM): 0.458 | relative viability ([4]; first compound 4 µM): 0.418

NCI-H3122
relative viability ([1]; first compound 0.04 µM): 1.08 | relative viability ([1]; first compound 0.1265 µM): 0.876 | relative viability ([1]; first compound 0.4 µM): 0.932 | relative viability ([1]; first compound 1.265 µM): 1.07 | relative viability ([1]; first compound 4 µM): 0.619 | relative viability ([2]; first compound 0.04 µM): 0.456 | relative viability ([2]; first compound 0.1265 µM): 0.471 | relative viability ([2]; first compound 0.4 µM): 0.401 | relative viability ([2]; first compound 1.265 µM): 0.415 | relative viability ([2]; first compound 4 µM): 0.204 | relative viability ([3]; first compound 0.04 µM): 1.06 | relative viability ([3]; first compound 0.1265 µM): 0.925 | relative viability ([3]; first compound 0.4 µM): 0.988 | relative viability ([3]; first compound 1.265 µM): 0.974 | relative viability ([3]; first compound 4 µM): 1.02 | relative viability ([4]; first compound 0.04 µM): 0.632 | relative viability ([4]; first compound 0.1265 µM): 0.434 | relative viability ([4]; first compound 0.4 µM): 0.604 | relative viability ([4]; first compound 1.265 µM): 0.653 | relative viability ([4]; first compound 4 µM): 0.62

PC-3 [JPC-3]
relative viability ([1]; first compound 0.04 µM): 0.752 | relative viability ([1]; first compound 0.1265 µM): 0.703 | relative viability ([1]; first compound 0.4 µM): 0.674 | relative viability ([1]; first compound 1.265 µM): 0.697 | relative viability ([1]; first compound 4 µM): 0.565 | relative viability ([2]; first compound 0.04 µM): 0.913 | relative viability ([2]; first compound 0.1265 µM): 0.911 | relative viability ([2]; first compound 0.4 µM): 0.866 | relative viability ([2]; first compound 1.265 µM): 0.902 | relative viability ([2]; first compound 4 µM): 0.8 | relative viability ([3]; first compound 0.04 µM): 0.959 | relative viability ([3]; first compound 0.1265 µM): 0.913 | relative viability ([3]; first compound 0.4 µM): 0.956 | relative viability ([3]; first compound 1.265 µM): 1.02 | relative viability ([3]; first compound 4 µM): 0.897 | relative viability ([4]; first compound 0.04 µM): 0.768 | relative viability ([4]; first compound 0.1265 µM): 0.71 | relative viability ([4]; first compound 0.4 µM): 0.699 | relative viability ([4]; first compound 1.265 µM): 0.793 | relative viability ([4]; first compound 4 µM): 0.645

PC-14
relative viability ([1]; first compound 0.04 µM): 0.995 | relative viability ([1]; first compound 0.1265 µM): 0.626 | relative viability ([1]; first compound 0.4 µM): 0.747 | relative viability ([1]; first compound 1.265 µM): 0.773 | relative viability ([1]; first compound 4 µM): 0.605 | relative viability ([2]; first compound 0.04 µM): 0.62 | relative viability ([2]; first compound 0.1265 µM): 0.561 | relative viability ([2]; first compound 0.4 µM): 0.55 | relative viability ([2]; first compound 1.265 µM): 0.659 | relative viability ([2]; first compound 4 µM): 0.367 | relative viability ([3]; first compound 0.04 µM): 1.04 | relative viability ([3]; first compound 0.1265 µM): 0.919 | relative viability ([3]; first compound 0.4 µM): 0.908 | relative viability ([3]; first compound 1.265 µM): 0.91 | relative viability ([3]; first compound 4 µM): 0.633 | relative viability ([4]; first compound 0.04 µM): 0.769 | relative viability ([4]; first compound 0.1265 µM): 0.688 | relative viability ([4]; first compound 0.4 µM): 0.557 | relative viability ([4]; first compound 1.265 µM): 0.537 | relative viability ([4]; first compound 4 µM): 0.438

RERF-LC-KJ
relative viability ([1]; first compound 0.04 µM): 0.595 | relative viability ([1]; first compound 0.1265 µM): 0.478 | relative viability ([1]; first compound 0.4 µM): 0.558 | relative viability ([1]; first compound 1.265 µM): 0.628 | relative viability ([1]; first compound 4 µM): 0.389 | relative viability ([2]; first compound 0.04 µM): 0.467 | relative viability ([2]; first compound 0.1265 µM): 0.398 | relative viability ([2]; first compound 0.4 µM): 0.418 | relative viability ([2]; first compound 1.265 µM): 0.338 | relative viability ([2]; first compound 4 µM): 0.239 | relative viability ([3]; first compound 0.04 µM): 0.919 | relative viability ([3]; first compound 0.1265 µM): 0.882 | relative viability ([3]; first compound 0.4 µM): 0.842 | relative viability ([3]; first compound 1.265 µM): 0.814 | relative viability ([3]; first compound 4 µM): 0.812 | relative viability ([4]; first compound 0.04 µM): 0.546 | relative viability ([4]; first compound 0.1265 µM): 0.501 | relative viability ([4]; first compound 0.4 µM): 0.451 | relative viability ([4]; first compound 1.265 µM): 0.597 | relative viability ([4]; first compound 4 µM): 0.459

SK-LU-1
relative viability ([1]; first compound 0.04 µM): 0.386 | relative viability ([1]; first compound 0.1265 µM): 0.305 | relative viability ([1]; first compound 0.4 µM): 0.26 | relative viability ([1]; first compound 1.265 µM): 0.299 | relative viability ([1]; first compound 4 µM): 0.199 | relative viability ([2]; first compound 0.04 µM): 0.365 | relative viability ([2]; first compound 0.1265 µM): 0.276 | relative viability ([2]; first compound 0.4 µM): 0.262 | relative viability ([2]; first compound 1.265 µM): 0.339 | relative viability ([2]; first compound 4 µM): 0.204 | relative viability ([3]; first compound 0.04 µM): 1.33 | relative viability ([3]; first compound 0.1265 µM): 0.993 | relative viability ([3]; first compound 0.4 µM): 1.09 | relative viability ([3]; first compound 1.265 µM): 1.05 | relative viability ([3]; first compound 4 µM): 0.597 | relative viability ([4]; first compound 0.04 µM): 0.543 | relative viability ([4]; first compound 0.1265 µM): 0.544 | relative viability ([4]; first compound 0.4 µM): 0.604 | relative viability ([4]; first compound 1.265 µM): 0.576 | relative viability ([4]; first compound 4 µM): 0.343

SK-MES-1
relative viability ([1]; first compound 0.04 µM): 0.699 | relative viability ([1]; first compound 0.1265 µM): 0.559 | relative viability ([1]; first compound 0.4 µM): 0.567 | relative viability ([1]; first compound 1.265 µM): 0.55 | relative viability ([1]; first compound 4 µM): 0.336 | relative viability ([2]; first compound 0.04 µM): 1.06 | relative viability ([2]; first compound 0.1265 µM): 0.82 | relative viability ([2]; first compound 0.4 µM): 0.766 | relative viability ([2]; first compound 1.265 µM): 0.607 | relative viability ([2]; first compound 4 µM): 0.22 | relative viability ([3]; first compound 0.04 µM): 1.06 | relative viability ([3]; first compound 0.1265 µM): 1.05 | relative viability ([3]; first compound 0.4 µM): 1.02 | relative viability ([3]; first compound 1.265 µM): 0.902 | relative viability ([3]; first compound 4 µM): 0.705 | relative viability ([4]; first compound 0.04 µM): 0.345 | relative viability ([4]; first compound 0.1265 µM): 0.332 | relative viability ([4]; first compound 0.4 µM): 0.291 | relative viability ([4]; first compound 1.265 µM): 0.308 | relative viability ([4]; first compound 4 µM): 0.23

SW 1573
relative viability ([1]; first compound 0.04 µM): 0.598 | relative viability ([1]; first compound 0.1265 µM): 0.436 | relative viability ([1]; first compound 0.4 µM): 0.513 | relative viability ([1]; first compound 1.265 µM): 0.477 | relative viability ([1]; first compound 4 µM): 0.329 | relative viability ([2]; first compound 0.04 µM): 0.175 | relative viability ([2]; first compound 0.1265 µM): 0.16 | relative viability ([2]; first compound 0.4 µM): 0.159 | relative viability ([2]; first compound 1.265 µM): 0.176 | relative viability ([2]; first compound 4 µM): 0.175 | relative viability ([3]; first compound 0.04 µM): 0.768 | relative viability ([3]; first compound 0.1265 µM): 0.756 | relative viability ([3]; first compound 0.4 µM): 0.89 | relative viability ([3]; first compound 1.265 µM): 0.771 | relative viability ([3]; first compound 4 µM): 0.63 | relative viability ([4]; first compound 0.04 µM): 0.6 | relative viability ([4]; first compound 0.1265 µM): 0.414 | relative viability ([4]; first compound 0.4 µM): 0.47 | relative viability ([4]; first compound 1.265 µM): 0.402 | relative viability ([4]; first compound 4 µM): 0.368
